Source: ChEMBL document CHEMBL1201862, “PubChem BioAssay data set” (2004)
Calls of active or inactive are those of the source.

Assays:
Vero [1] = experiment: cells; type: functional; settings: Chlorocebus sabaeus
[2] = HepG2 cell cytotoxicity, dose response, cytotoxicity control for non-replicating M. tuberculosis project (AID 489018); type: functional; settings: Mycobacterium tuberculosis
CAAX prenyl protease 1 = CAAX prenyl protease 1 (Saccharomyces cerevisiae S288c, UniProt P47154); experiment: Ste24 protease inhibitors, dose response, biochemical, S. cerevisiae, plate reader, cherry-pick (AID 488815)
[3] = THP-1 cell cytotoxicity, dose response, cytotoxicity control for non-replicating M. tuberculosis project (AID 489025); type: functional
Vero [4] = experiment: host cell cytotoxicity of antiviral hits, dose response, cytotoxicity control for West Nile virus antiviral project, secondary assay (AID 1650); type: functional; settings: Chlorocebus sabaeus
Vero [5] = experiment: cells; type: functional, cell-based; settings: Chlorocebus sabaeus
[6] = Luminescence Cell-Based Dose Retest to Confirm Inhibitors of Cancer Stem Cells. [Related pubchem assays (depositor defined):AID2717, AID2721]; type: functional; settings: Homo sapiens
CAAX prenyl protease 2 = CAAX prenyl protease 2 (Saccharomyces cerevisiae S288c, UniProt Q03530); type: biochemical
Sequence of CAAX prenyl protease 2 (Q03530 whole entry): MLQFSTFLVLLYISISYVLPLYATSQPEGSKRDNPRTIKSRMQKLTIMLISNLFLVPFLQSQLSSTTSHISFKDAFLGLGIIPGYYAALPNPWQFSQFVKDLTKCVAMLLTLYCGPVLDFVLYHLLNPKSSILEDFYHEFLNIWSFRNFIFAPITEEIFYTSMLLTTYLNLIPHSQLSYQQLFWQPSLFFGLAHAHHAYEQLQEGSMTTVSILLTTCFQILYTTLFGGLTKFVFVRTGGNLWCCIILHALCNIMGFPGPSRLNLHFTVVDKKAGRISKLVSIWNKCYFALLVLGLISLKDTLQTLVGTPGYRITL

Sequence of CAAX prenyl protease 1 (P47154 whole entry): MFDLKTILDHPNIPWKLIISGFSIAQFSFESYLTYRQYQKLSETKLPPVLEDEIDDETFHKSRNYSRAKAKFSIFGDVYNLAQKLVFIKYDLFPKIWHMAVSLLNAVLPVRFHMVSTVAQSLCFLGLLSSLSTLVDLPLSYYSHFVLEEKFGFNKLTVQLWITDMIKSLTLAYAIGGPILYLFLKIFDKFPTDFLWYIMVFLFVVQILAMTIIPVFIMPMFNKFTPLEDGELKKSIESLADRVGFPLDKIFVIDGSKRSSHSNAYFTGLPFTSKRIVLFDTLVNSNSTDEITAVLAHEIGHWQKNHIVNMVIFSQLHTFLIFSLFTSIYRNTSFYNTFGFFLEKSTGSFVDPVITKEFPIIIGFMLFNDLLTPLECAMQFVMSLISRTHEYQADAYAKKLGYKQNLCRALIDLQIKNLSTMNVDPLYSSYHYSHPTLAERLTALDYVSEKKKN

CCN(CC)CCNC(=O)c1[nH]c2ccc(OCc3ccccc3)cc2c1C
active: CC50 (Vero [1]) > 25 µM | CC50 [2] 17 µM | AC50 (CAAX prenyl protease 1) 4.58 µM | CC50 [3] 25.6 µM | CC50 (Vero [4]) 29.4 µM | IC50 (Vero [5]) > 25 µM | AC50 [6] 1.18 µM | AC50 (CAAX prenyl protease 2) 14.1 µM
